Data: BigSolDB 2.1

Cc1c(-c2ccccc2)oc2c(C(=O)OCCN3CCCCC3)cccc2c1=O.Cl
solubility (mole fraction)
Settings	278.15 K	283.15 K	288.15 K	293.15 K	298.15 K	303.15 K	308.15 K	313.15 K	318.15 K	323.15 K
in 2-ethoxyethanol	0.000121	0.000162	0.000173	0.000211	0.000252	0.000309	0.000362	0.00044	0.000533	0.000636
in 2-methoxyethanol	0.000431	0.000521	0.000578	0.000675	0.000788	0.000931	0.00107	0.00129	0.00152	0.00182
in 2-propoxyethanol	0.000193	0.000212	0.000255	0.000303	0.000355	0.000413	0.000509	0.000593	0.000704	0.000881
in DMSO	–	–	–	0.000626	0.000775	0.000911	0.00107	0.00129	0.00152	0.0018
in NMP	0.000254	0.000334	0.00039	0.00047	0.000548	0.000646	0.000768	0.000919	0.00109	0.0013
in acetonitrile	2.88e-05	3.71e-05	4.2e-05	4.95e-05	6.13e-05	7.58e-05	8.98e-05	0.000112	0.000141	0.000174
in ethanol	8.81e-05	9.89e-05	0.000117	0.000143	0.000182	0.00022	0.000284	0.000364	0.000452	0.000565
in ethylene glycol	0.000868	0.00115	0.00136	0.00161	0.002	0.00236	0.00284	0.00347	0.00415	0.005
in methanol	0.000529	0.000637	0.000808	0.000961	0.00116	0.0014	0.00169	0.00207	0.00255	0.00317
in n-butanol	3.52e-05	4.51e-05	6.1e-05	9.1e-05	0.000124	0.000171	0.000223	0.000303	0.000374	0.000468
in n-propanol	2.87e-05	3.76e-05	4.58e-05	6.56e-05	0.000107	0.000142	0.000188	0.000252	0.000331	0.000425
in water	0.000219	0.00026	0.000301	0.000361	0.000442	0.000526	0.000629	0.000757	0.00092	0.00114
